What was measured:
[1] = Solubility of cabazitaxel in PEG300/SBE-β-CD/PVPK12/water solution system with additives; format: physicochemical; details: 700 mg/ml PEG300, 290 mg/ml SBE-β-CD, 80 mg/ml PVPK12, water, nitrogen
Source text: In view of various defects of the prior art, the inventor of the present application breaks through the prejudice of the prior art, conducts reverse experiments on existing knowledge, reduces the amount of cyclodextrin and abandons the use of ethanol having strong stimulation as a solvent and Tween 80 having side effects.

[2] = cited from earlier work
[3] = Solubility of cabazitaxel in 40% SBE-β-CD aqueous solution; format: physicochemical; details: found by the present inventors
Source text: Cyclodextrin, a pharmaceutical excipient, has a hollow hydrophobic, stereoscopic chiral inner cavity; due to its structural characteristic of “inner hydrophobic, external hydrophilic”, it can encapsulate a variety of small organic molecules (substrates) having suitable space size to form a noncovalent host-guest complex (inclusion complex). Its most significant pharmaceutical function is to increase the water solubility of poorly soluble drugs and improve the stability of drugs. For example, the invention application No. CA2900508A1 (US20150325321A1) by Valery Alakhov et al. disclosed a composition comprising cabazitaxel and suifobutyl ether beta cyclodextrin (SBF-β-CD) in a weight ratio of 1:30 to 1:1000. […] Even if it can reach such concentration, it is difficult to prepare a cabazitaxel injection that meets the concentration specifications of commercial preparations.

## (1S,2S,3R,4S,7R,9S,10S,12R,15S)-4-acetyloxy-15-{[(2R,3S)-3-{[(tertbutoxy)carbonylamino]}-2-hydroxy-3-phenylpropanoyl]oxy}-1-hydroxy-9, 12-dimethoxy-10,14,17,17-tetramethyl-11-oxo-6-oxatetracyclo[11.3.1.0^3:10.0^4:7]heptadec-13-ene-2-yl benzoate [cabazitaxel]
[1]
  solubility of cabazitaxel: ≥ 40 mg/mL
[2]; alkaline conditions
  stability under alkaline conditions: unstable under alkaline conditions
[2]; ethanol
  solubility in ethanol: soluble in ethanol
[2]; water
  solubility in water: almost insoluble in water
[3]
  solubility of cabazitaxel: about 1 mg/mL

— patent publication US20200268705A1, “CABAZITAXEL COMPOSITION FOR INJECTION AND PREPARATION METHOD THEREFOR” (BIKA BIOTECHNOLOGY (GUANGZHOU) CO., LTD., priority 2018, published 2020)
